Data reported in US20250002461A1, “DEUTERATED (TRIFLUOROMETHYL)PYRIMIDINE-2-AMINE COMPOUNDS AS POTENTIATORS OF THE HMRGX1 RECEPTOR” (Eli Lilly and Company, priority 2021, published 2025).
Where two headings read alike, the source gives them in different places.

Assays:
[1] = Determination of pharmacokinetics in mice; type: in vivo, mouse; conditions: male CD-1 mice; for CLIV / Vd: IV 1 mg/kg; for Vd / bioavailability: mouse, whole blood (dried blood spot); for Vd: read-out: Vd, ss; for bioavailability: PO 10 mg/kg vs IV 1 mg/kg
Description: Determination of Pharmacokinetics in Mice
Subjects: The subjects for these studies were male CD-1 mice from either Envigo, (Indianapolis, IN, USA) or Charles River Laboratories, Inc (Raleigh, NC, USA) between 4-12 weeks old at time of test. Each dosing group has three animals, and food and water is available ad libitum.
Dosing and Sample Collection: The test compound was administered intravenously (IV) via tail vein at 1 mg/kg (using vehicle: 25% (v/v) Dimethylacetamide (DMA), 15% (v/v) Ethanol (EtOH), 10% (v/v) Propylene Glycol (PG), 25% 2-Pyrrolidone (2-P), and 25% purified water) and orally (PO) via gavage needle at 10 mg/kg (using a vehicle of 1% (w/v) Hydroxyethylcellulose, 0.25% (w/v) Polysorbate 80, 0.05% (v/v) Antifoam1510-US in purified water quantum satis. Blood for dried blood spot (DBS) collection (approximately 20 μL) was collected from each available animal via a saphenous vein utilizing K2EDTA capillary tubes and stored at ambient temperature until analysis. Serial blood samples are collected at 0.08, 0.25, 0.5, 1, 2, 4, 8, 12, 24, and 48 h post dose for IV bolus and at 0.25, 0.5, 1, 2, 4, 8, 12, 24, and 48 h post dose after oral administration.
Sample Analysis: DBS cards (3 mm punches) of samples or standards were each mixed with a 180 uL solution of methanol: acetonitrile (1/1, v/v) containing internal standard to extract analyte followed by a two-fold dilution with water. A 10 uL aliquot of sample or standard is analyzed using an LC-MS/MS method. For Compound A, the lower limit of quantification (LLQ) was 5 ng/ml and the upper limit of quantification (ULQ) was 2500 ng/mL. For the compound of Example 1, the LLQ was 10 ng/ml and ULQ was 10,000 ng/mL
Calculation of pharmacokinetic parameters: Test article concentration data was uploaded into the Thermo Scientific™ Watson LIMS™ system where noncompartmental analysis was used to calculate Area Under the Curve (AUC) for both IV and PO arms, and Mean Residence Time (MRT) from the IV arm. • Bioavailability (% F) was calculated as follows,
[formula] • IV Clearance (CLIV) was calculated as follows,
[formula] • Volume of distribution at steady state (Vd,ss) was calculated as follows, […]

[2] = Intrinsic clearance in mouse cryopreserved hepatocytes; type: in vitro ADME; conditions: 0.3 μM substrate, 37° C.
Description: (§1) In Vitro Determination of Intrinsic Clearance in Mice and Human Hepatocytes
(§2) Cryopreserved hepatocytes are used to determine the in vitro metabolic clearance of pharmaceutical candidates. The following assay was conducted to compare the compound of Example 1 to its undeuterated analog, referred to hereinafter as Compound A:
(§3) Compound incubations (0.3 μM substrate concentrations) were then performed in a 96-well plate format at 37° C. with 200,000 cells/well, shaking at approximately 600 rpm. Incubations were initiated by direct addition of 2 μL of the substrate compounds. At 0, 15, 30, 60, and 90 minutes, 20 μL of incubation samples were quenched with 80 μL acetonitrile containing internal standard. Quenched plates were foil sealed, centrifuged for 30 minutes at 4000 rpm and analyzed for substrate by liquid chromatography with tandem mass spectrometry (LC-MS/MS).
(§4) Intrinsic clearance is a measure of the maximum potential liver metabolism of a compound when not restricted by blood flow or protein binding This intrinsic clearance was determined from the elimination rate constants (kdep; min^−1) measured from the disappearance of substrate in the incubations over time, using the following equation: […]

[3] = Intrinsic clearance in human cryopreserved hepatocytes; type: in vitro ADME; conditions: 0.3 μM substrate, 37° C.
Description: as §1, §2, §3, §4

[4] = In vivo determination of Kp,uu,brain in mice; conditions: male, CD1 (ICR), mouse, 100 mg/kg oral
From the text: In Vivo Determination of Kp,uu,Brain in Mice
Unbound brain-to-plasma partition coefficient (Kp,uu,brain) is one of the key pharmacokinetic parameters for evaluating a compound's ability to cross the blood-brain barrier (BBB). It is typically measured in pre-clinical species using the following methodology. Kp,uu,brain values indicate the fraction of free drug in plasma that partitions across the BBB.
Subjects: The subjects for these studies were 12 male CD1 (ICR) mice (Envigo, Indianapolis, IN, USA) between 5-7 weeks old at time of test. Mice were housed in groups of 4 in high density plastic home cages. Food and water were available ad libitum. The rooms were maintained at 73° F. with 30-70% relative humidity and kept on a light/dark cycle of 0600-1800 h.
Agent: The compound of Example 1 was prepared at 10 mg/ml in the 1% HEC, 0.25% TWEEN®80, 0.05% DOWSIL™ vehicle in water. Prepared compound was sonicated in water bath for 30 min until a suspension was formed. Mice were dosed orally at 10 ml/kg for a 100 mg/kg dose.
Dosing and Tissue Collection: For this experiment, ten mice received oral dosing of 100 mg/kg of the compound of Example 1. Mice were then euthanized at 2 h post-dosing via CO2 asphyxiation, plasma samples were collected via cardia puncture, and mouse brains removed, weighed, and frozen on dry ice. Blood samples were stored in EDTA tubes on wet ice and centrifuged at 15 k rpm for 10 min. Plasma was collected, plated in a 96-well plate, and frozen at −80° C.
Pharmacokinetic sampling: Plasma and brain samples obtained were analyzed for Example 1 using an LC-MS/MS method (Q2 Solutions, Indianapolis, IN, USA). Plasma samples were extracted using protein precipitation. The lower limit of quantification was 25 ng/mL, and the upper limit of quantification was 5000 ng/mL. Brain samples were homogenized, and the analyte was extracted using protein precipitation. The lower limit of quantification was 4 ng/g and the upper limit of quantification was 200000 ng/g.
Analysis and Results: Kp,uu,brain was calculated for each time point from the expression below where individual components are derived from a combination of in vitro and in vivo measurements carried out as described above:
where Ctotal,brain, Cu,brain, Ctotal,plasma, and Cu,plasma are total and unbound brain and plasma concentrations, and fu,brain and fu,plasma are fractions unbound in brain and plasma, respectively.

[5] = Plasma and brain homogenate protein binding by equilibrium dialysis; type: in vitro ADME, mouse
Description: Determination of plasma and brain protein binding: Mouse plasma and brain homogenate protein binding was determined in vitro using equilibrium dialysis, as described elsewhere [Zamek-Gliszczynski et al., J Pharm Sci, 101:1932-1940, 2012]. The results are reported as fraction unbound in plasma (fu,plasma) and brain (fu,brain) which are then utilized to calculate Kp,uu,brain as described below. Mouse fu,plasma and fu,brain of Example 1 was determined to be 0.0667 and 0.011, respectively.

human MrgX1 receptor = molecular target: T1, human MrgX1 receptor (Homo sapiens, UniProt Q96LB2); assay: IP1 cellular assay for EC50 determination against hMrgX1 by HTRF; type: cell-based; conditions: for EC50: HEK293 cells expressing human MrgX1, in presence of EC15 of BAM8-22, geometric mean (SEM, n), read-out: Relative EC50 (SEM, n); for Max (Mean ± SEM): maximum stimulation relative to saturating BAM8-22
T1 construct: expressed in transfected cells
Description: IP1 Cellular Assay for EC50 Determination Against hMrgX1 by HTRF
Cell plating: HEK293 cells stably expressing the recombinant human MrgX1 receptor were expanded in culture flasks (Corning, T150), using growth media containing DMEM with glutamine (GIBCO™ Cat. #11960-044) supplemented with 10% heat-inactivated FBS (HyClone™, Cat. #CH30073), 1% penicillin/streptomycin (HyClone™, Cat. #SV30010; 10,000 U/mL penicillin; 10,000 μg/mL streptomycin in 0.85% NaCl), 20 mM HEPES (GIBCO™, Cat. #15630122) and 0.3 mg/mL G418 (GIBCO™ Cat. #11811031). When cell monolayers achieved a level of 80-90% confluence, monolayers were washed once with 10 mL of DPBS (HyClone™, Cat. #14190-144), dissociated using TrypLE™ Express enzyme cell dissociation media (GIBCO™ Cat. #12605-010), and were diluted by addition of 10 mL DPBS. Dissociated cells were transferred to a sterile 50 mL conical tube, pelleted by centrifugation at 300×g to remove the growth and dissociation media, and diluted to 1M cells/mL into DMEM for plating.
IP1 Potency and Efficacy Determination: Test compounds were dissolved in DMSO to a concentration of 10 mM and serially diluted in DMSO to obtain a 10-point concentration response stock dilution plate. Growth media was removed from the cell plate, and the stock 10-point dilution plate was diluted into media and stamped into the cell plate at a concentration 2× higher than the final test concentration of […] maximum. The endogenous agonist BAM8-22 (Tocris-BioScience Cat. #1763) was diluted to the EC15, determined independently at a minimum of n=3, into the cell plate and incubated at room temperature for 120 min. Subsequently, half the volume each of anti-IP1 cryptate and d2-labeled IP1 in lysis buffer, supplied with the IP-One Gq Kit (CisBio Cat. #62IPAPEC) was added to the cell plate to initiate cell lysis, and incubated for 60 min at room temperature in the dark. Fluorescence was then determined at 620 and 665 nm (˜100 us following laser excitation).
Data Analysis: Fluorescent ratios were determined as the ratio of the fluorescence emission at 665 nm over 620 nm and converted to IP1 concentration, using the IP1 standard curve generated in a separate plate, following the manufacturer's instructions. The IP1 concentration was then plotted as a function of compound concentration. […]

T1 sequence (Q96LB2 whole entry): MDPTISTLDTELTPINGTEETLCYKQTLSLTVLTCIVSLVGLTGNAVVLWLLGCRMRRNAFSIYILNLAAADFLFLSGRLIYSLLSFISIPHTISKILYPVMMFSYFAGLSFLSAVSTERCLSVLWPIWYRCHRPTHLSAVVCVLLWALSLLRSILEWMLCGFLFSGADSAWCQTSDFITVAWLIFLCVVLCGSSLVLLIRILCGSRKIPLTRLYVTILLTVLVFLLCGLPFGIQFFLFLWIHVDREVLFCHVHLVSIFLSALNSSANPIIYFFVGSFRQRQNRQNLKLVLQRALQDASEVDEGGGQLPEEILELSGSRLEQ

CLIV [1] [mL/min/kg] | Vd [1] [L/kg] | bioavailability [1] [%] | hepatocyte CLint at 0.3 μM [2] [µL/min/1e6 cells] | hepatocyte CLint at 0.3 μM [3] [µL/min/1e6 cells] | concentration at 2 h ([4]; brain (unbound), 2 h, using mouse fu,brain 0.011, read-out: Unbound brain conc. (Cu, brain) ± SD) [µM] | concentration at 2 h ([4]; brain, 2 h post dose, read-out: Total brain conc. (Ctotal, brain) ± SD) [µM] | concentration at 2 h ([4]; plasma (unbound), 2 h, using mouse fu,plasma 0.0667, read-out: Unbound plasma conc. (Cu, plasma) ± SD) [µM] | concentration at 2 h ([4]; plasma, 2 h post dose, read-out: Total plasma conc. (Ctotal, plasma) ± SD) [µM] | Kp uu at 2 h ([4]; 2 h, unbound brain-to-plasma partition coefficient) | fraction unbound ([5]; mouse brain homogenate, read-out: fraction unbound in brain (fu,brain)) | fraction unbound ([5]; mouse plasma, read-out: fraction unbound in plasma (fu,plasma)) | EC50 (human MrgX1 receptor) [nM] | Max (Mean ± SEM) (human MrgX1 receptor) | SMILES
16.1 ± 1.7 | 6.6 ± 0.1 | 34 ± 3.7 | < 1.8 | 2.62 | – | – | – | – | – | – | – | – | – | Cc1c(Oc2c(F)cc(C#N)cc2F)nc(N)nc1C(F)(F)F [Compound A, reference compound]
7.7 ± 1.3 | 9.5 ± 3.1 | 60 ± 2.6 | < 1.8 | 6.47 | 0.706 ± 0.25 | 64.1 ± 22.7 | 1.25 ± 0.418 | 18.8 ± 6.26 | 0.586 | 0.011 | 0.0667 | 22 | 111 ± 14.9, n = 4% | [2H]C([2H])([2H])c1c(Oc2c(F)cc(C#N)cc2F)nc(N)nc1C(F)(F)F [Example 1, 4-[2-amino-5-(trideuteriomethyl)-6-(trifluoromethyl)pyrimidin-4-yl]oxy-3,5-difluoro-benzonitrile]
– | – | – | – | – | – | – | – | – | – | – | – | 28 | 106 ± 8.16, n = 4% | [2H]C([2H])([2H])c1c(Oc2c(F)cccc2F)nc(N)nc1C(F)(F)F [Example 2, 4-(2,6-difluorophenoxy)-5-(trideuteriomethyl)-6-(trifluoromethyl)pyrimidin-2-amine]
